According to patent publication US20080146555A1, “Uses of Kinase Inhibitors and Compositions Thereof” (GPC Biotech, Inc, priority 2004, published 2008):

Experiments:
HCT-116 cells [1] = test: Calcein AM viability assay, HCT-116; assay type: cell-based; details: Homo sapiens
Experimental: (§1) The potency of the subject kinase inhibitors, as measured by loss of cellular viability, was determined with the Calcein AM assay (Molecular Probes). Calcein AM is a substrate of intracellular esterases, which is cleaved only in viable cells to generate a fluorescent product that can be quantified with a fluorescent plate reader. The fluorescent signal is proportional to the number of viable cells, and thus loss of signal in response to the exposure of cells to the subject kinase inhibitors correlates with a loss of viability. This assay not only distinguishes cell cycle arrest, in which cells may still by viable, from loss of viability, and is thus well suited for the evaluation of the subject kinase inhibitors. A compound that is a potent cytotoxic agent may cause significant loss of cell viability in such an assay.
(§2) Cellular IC50's were determined in the human colorectal carcinoma cell line, HCT-116, and the normal human fibroblast, IMR90. Protein adjusted IC50's were also determined in HCT-116. Results of such viability assays are presented in Table 2 (HCT-116 (viability/protein adjusted) and IMR-90). IC50's (μM, non-protein adjusted) for the viability assay against HCT-116 cells are shown for further compounds of the invention in Table 4.
(§3) HCT-116 or IMR90 cells were recovered from sub-confluent plates by trypsinization and 1,000 or 4,000 cells, respectively, were plated in 24-well dishes and incubated overnight at 37° C., 5% CO2. HCT-116 cells were cultured in RPMI-1640, 10% FCS, and IMR90 cells were cultured in Minimum Essential Medium-alpha, 10% FCS. After overnight incubation to allow adherence, the media was aspirated from each well and replaced with media containing a test compound at a concentration from 0 to 250 nM, spanning a total of 7 doses. The plates were returned to the incubator and cultured for an additional 72 hours (3 days). […] After 72-hours incubation with the test compound, the cells were washed twice with 1×PBS, taking special care to remove all residual buffer.
(§4) A 5 μM Calcein AM solution was prepared by dissolving a 50 μg aliquot of Calcein (Molecular Probes catalog #C3100) in 50 μl DMSO. After the Calcein had completely dissolved (10 minutes at room temperature), it was diluted into 10 ml PBS. Calcein/PBS (0.5 ml) was added to each well. The plates were incubated for 75 minutes at 37° C. (protected from light) and the fluorescent signal was read on a fluorescent plate reader (excitation 485/20 and emission 530/25).

[2] = tested on: normal human fibroblast, IMR90; test: Calcein AM viability assay, IMR90; assay type: cell-based; details: IMR-90, Calcein AM, 72 h
Experimental: as §1, §2, §3, §4

HCT-116 cells [3] = test: Clonogenic survival assay with HCT-116 cells; assay type: cell-based; details: Homo sapiens
Experimental: This assay was used to determine the concentration of a compound that results in irreversible loss of viability after a specified period of exposure. Essentially, cells are exposed to compound for a period of […], and are then transferred to compound-free growth medium. After continued incubation in the compound-free medium for a number of days, the number of colonies recovered is counted as an estimate of the number of surviving cells.
Media (RPMI-1640, 10% FCS, pen/strep) was pre-warmed to 37° C. in a water bath. Cells were incubated and grown at 37° C., 5% CO2. Cells were recovered by trypsinization from sub-confluent plates and counted using a hemocytometer. 1×10^4 cells were plated in 25 mls of media in a 15 cm tissue culture dish. […] were set up for each test compound, and were incubated overnight at 37° C. The compound was diluted into media at 7 concentrations and the media on the cells was replaced with that containing the test compound. Two plates were set up for each concentration of the compound to be tested, as well as two control plates without compound. Plates were incubated as above for […], media was removed and replaced with fresh media, and the plates were incubated an additional 7 days and washed with PBS. Colonies were stained with crystal violet solution (0.4% crystal violet, 20% ethanol) for 5 minutes, washed twice with distilled water, and counted.

[4] = tested on: adriamycin resistant cell line (ADR-res); test: NCI panel, adriamycin resistant cell line, SRB assay; assay type: cell-based; details: Homo sapiens, 48 h
Text: (§5) The evaluation of compounds at the National Cancer Institute in their panel of 60 cell lines provides a wealth of information regarding efficacy in a wide range of tumor types and genetic backgrounds. Included within this panel are cell lines derived from leukemia, melanoma and cancers of the lung, colon, brain, ovary, breast, prostate and kidney. Use of this panel provides a measure of the efficacy of compounds in cells with alterations in many genes that are associated with neoplastic transformation including p53 and Her2/Neu as well as those involved in metabolism and those which confer multi-drug resistance. The data generated in these cell lines with the protocol described below can be used to evaluate the activity of compounds.
(§6) Cells were grown in RPMI-1640 10% FCS and plated in 96 well micro-titer plates at densities ranging from 5,000 to 40,000 cells/well. The plates were incubated for 24 hours at 37° C., 5% CO2 for 24 hours. Media containing twice the desired final concentration of the compound (5 doses spanning 4 logs) was prepared and 100 μl was added to each well containing 100 μl media plus cells to yield the desired final concentration. The plates were then incubated for an additional 48 hours.
(§7) The effect of the compound on cellular viability was determined with the Sulforhodamine B (SRB) assay, which measures total protein. Cells were fixed with cold TCA to a final concentration of 10% and incubated at 4° C. for 60 minutes. The supernatant was discarded and the plates were washed five times with water and air-dried. SRB solution at […] in 1% acetic acid was added to each well and the plates were incubated for 10 minutes at room temperature. The plates were washed five times with 1% acetic acid and air-dried. The bound stain was solubilized with 10 mM trizma base and the absorbance was read on a plate reader at […].

[5] = tested on: NCI panel of 60 cell lines; test: cells; details: Homo sapiens, 60 cell, 48 h, read-out: NCI panel MG-MID (Mean-Graph Mid-point, average IC50 over panel), 48 h, SRB; IC50 <10 nM counted as 10 nM
Text: as §5, §6, §7

[6] = HCT-116, non-protein adjusted, Table 4, read-out: HCT-116 viability IC50
[7] = HCT-116, 72 h, Calcein AM, 72 h, read-out: HCT-116 IC50 Viability
[8] = HCT-116, plus 1 mg/ml alpha acidic glycoprotein and 45 mg/ml human serum albumin, read-out: HCT-116 IC50 Protein adjusted
[9] = 24 h exposure, read-out: HCT-116 IC50 Clonogenic 24 h
[10] = 48 h exposure, read-out: HCT-116 IC50 Clonogenic 48 h

Row | Compound | IC50 (HCT-116 cells [1]; [6]) [nM] | IC50 (HCT-116 cells [1]; [7]) [nM] | IC50 (HCT-116 cells [1]; [8]) [nM] | IC50 [2] [nM] | IC50 (HCT-116 cells [3]; [9]) [nM] | also measured
1 | O=C(Nc1cccc2c1C(=O)c1c(-c3ccc(CN4CCC(O)CC4)cc3)n[nH]c1-2)NN1CCOCC1 [Compound B5] | < 100 | – | – | – | – | –
2 | O=C(Nc1cccc2c1C(=O)c1c(-c3ccc(CN4CCC[C@H]4CO)cc3)n[nH]c1-2)NN1CCOCC1 [Compound B6] | < 100 | – | – | – | – | –
3 | O=C(Nc1cccc2c1C(=O)c1c(-c3ccc(CN4CCN(c5cccc(C(F)(F)F)c5)CC4)cc3)n[nH]c1-2)NN1CCOCC1 [Compound B7] | < 1000 | – | – | – | – | –
4 | O=C(Nc1cccc2c1C(=O)c1c(-c3ccc(CN4CC[C@@H](O)C4)cc3)n[nH]c1-2)NN1CCOCC1 [Compound B8] | < 100 | – | – | – | – | –
5 | CCOC(=O)C1CCN(Cc2ccc(-c3n[nH]c4c3C(=O)c3c(NC(=O)NN5CCOCC5)cccc3-4)cc2)CC1 [Compound B9] | < 100 | – | – | – | – | –
6 | O=C(Nc1cccc2c1C(=O)c1c(-c3ccc(CNCCO)cc3)n[nH]c1-2)NN1CCOCC1 [Compound B10] | < 100 | – | – | – | – | –
7 | O=C(Nc1cccc2c1C(=O)c1c(-c3ccc(CNCC(O)CO)cc3)n[nH]c1-2)NN1CCOCC1 (stereo not drawn) [Compound B11] | < 1000 | – | – | – | – | –
8 | O=C(Nc1cccc2c1C(=O)c1c(-c3ccc(CNCc4cccnc4)cc3)n[nH]c1-2)NN1CCOCC1 [Compound B12] | < 100 | – | – | – | – | –
9 | O=C(Nc1cccc2c1C(=O)c1c(-c3ccc(CNCc4ccccn4)cc3)n[nH]c1-2)NN1CCOCC1 [Compound B13] | < 10 | – | – | – | – | –
10 | O=C(Nc1cccc2c1C(=O)c1c-2n[nH]c1-c1ccc(CN2CCN(c3ccncc3)CC2)cc1)NN1CCOCC1 [Compound B14] | < 10 | – | – | – | – | –
11 | O=C(Nc1cccc2c1C(=O)c1c-2n[nH]c1-c1ccc(CN2CCN(c3ncccn3)CC2)cc1)NN1CCOCC1 [Compound B15] | < 10 | – | – | – | – | –
12 | CC(C)N1CCN(Cc2ccc(-c3[nH]nc4c3C(=O)c3c(NC(=O)NN5CCOCC5)cccc3-4)cc2)CC1 [Compound B17] | < 10 | – | – | – | – | –
13 | COCCN1CCN(C(=O)COc2ccc(-c3[nH]nc4c3C(=O)c3c(NC(=O)NN5CCOCC5)cccc3-4)cc2)CC1 [Compound C1] | < 100 | – | – | – | – | –
14 | O=C(Nc1cccc2c1C(=O)c1c-2n[nH]c1-c1ccc(OCC(=O)N2CCNCC2)cc1)NN1CCOCC1 [Compound C5] | < 250 | – | – | – | – | –
15 | O=C(Nc1cccc2c1C(=O)c1c-2n[nH]c1-c1ccc(OCCN2CCCC2)cc1)NN1CCOCC1 [Compound I] | – | < 100 | < 1000 | < 100 | < 100 | IC50 (HCT-116 cells [3]; [10]): < 100 nM; IC50 [4]: < 1000 nM; IC50 [5]: < 100 nM
16 | CN1CCN(NC(=O)Nc2cccc3c2C(=O)c2c-3n[nH]c2-c2ccc(OCCN3CCC[C@H]3CO)cc2)CC1 [Compound M] | – | < 100 | < 1000 | < 100 | < 100 | –
17 | CN1CCN(NC(=O)Nc2cccc3c2C(=O)c2c-3n[nH]c2-c2ccc(OCCN3CCCC3)cc2)CC1 [F] | – | < 100 | < 100 | < 100 | < 1000 | IC50 [4]: < 1000 nM; IC50 [5]: < 100 nM
18 | CCCN(CCOc1ccc(-c2[nH]nc3c2C(=O)c2c(NC(=O)NN4CCOCC4)cccc2-3)cc1)CC1CC1 [G] | – | < 100 | < 1000 | < 100 | < 100 | IC50 (HCT-116 cells [3]; [10]): < 100 nM; IC50 [4]: < 1000 nM; IC50 [5]: < 100 nM
19 | O=C(Nc1cccc2c1C(=O)c1c-2n[nH]c1-c1ccc(OCCN(CCO)CCO)cc1)NN1CCOCC1 [H] | – | < 100 | < 1000 | < 100 | < 1000 | IC50 (HCT-116 cells [3]; [10]): < 100 nM; IC50 [4]: > 10000 nM; IC50 [5]: < 100 nM
20 | O=C(Nc1cccc2c1C(=O)c1c-2n[nH]c1-c1ccc(OP(=O)(O)O)cc1)NN1CCOCC1 [J] | – | – | – | < 100 | – | IC50 (HCT-116 cells [1]; HCT-116, Calcein AM, 72 h, read-out: HCT-116 IC50 Viability): < 1000 nM
21 | CC(C)N1CCN(Cc2cc(-c3[nH]nc4c3C(=O)c3c(NC(=O)NN5CCOCC5)cccc3-4)ccc2O)CC1 [K] | – | < 100 | < 1000 | > 100 | < 1000 | IC50 [4]: < 10000 nM; IC50 [5]: < 100 nM
22 | Cc1cc(OCCN2CCCC2)ccc1-c1[nH]nc2c1C(=O)c1c(NC(=O)NN3CCN(C)CC3)cccc1-2 [L] | – | < 100 | < 1000 | > 100 | – | IC50 (HCT-116 cells [3]; [10]): < 100 nM; IC50 [4]: > 10000 nM; IC50 [5]: > 10000 nM
23 | CN1CCN(NC(=O)Nc2cccc3c2C(=O)c2c-3n[nH]c2-c2ccc(OCCN(CCO)CCO)cc2)CC1 [N] | – | < 1000 | < 1000 | > 100 | – | –
24 | CN1CCN(NC(=O)Nc2cccc3c2C(=O)c2c-3n[nH]c2-c2ccc(OCCN3CC[C@H](O)C3)cc2)CC1 [O] | – | < 100 | < 1000 | < 100 | < 10 | –
25 | Cc1cc(-c2[nH]nc3c2C(=O)c2c(NC(=O)NN4CCN(C)CC4)cccc2-3)ccc1OCCN1CCCC1 [P] | – | < 10 | – | < 100 | < 100 | –
